Reference: patent US9371294B2, “Cycloalkenyl aryl derivatives for CETP inhibitor” (CHONG KUN DANG PHARMACEUTICAL CORP., priority 2011, dated 2016)

target: T1, cholesteryl ester transfer protein (Homo sapiens, UniProt P11597); test: In vitro test for the ability to inhibit cholesteryl ester transfer; type: biochemical; details: [3H]-cholesteryl oleate transfer from rHDL-agarose to LDL; human plasma as CETP source; 37° C.; 16-10000 nM, duplicate
T1 construct: As a source of cholesteryl ester transfer protein, plasma from healthy humans was used; from tissue; host or cells: plasma from healthy humans
T1 sequence (P11597 18-493): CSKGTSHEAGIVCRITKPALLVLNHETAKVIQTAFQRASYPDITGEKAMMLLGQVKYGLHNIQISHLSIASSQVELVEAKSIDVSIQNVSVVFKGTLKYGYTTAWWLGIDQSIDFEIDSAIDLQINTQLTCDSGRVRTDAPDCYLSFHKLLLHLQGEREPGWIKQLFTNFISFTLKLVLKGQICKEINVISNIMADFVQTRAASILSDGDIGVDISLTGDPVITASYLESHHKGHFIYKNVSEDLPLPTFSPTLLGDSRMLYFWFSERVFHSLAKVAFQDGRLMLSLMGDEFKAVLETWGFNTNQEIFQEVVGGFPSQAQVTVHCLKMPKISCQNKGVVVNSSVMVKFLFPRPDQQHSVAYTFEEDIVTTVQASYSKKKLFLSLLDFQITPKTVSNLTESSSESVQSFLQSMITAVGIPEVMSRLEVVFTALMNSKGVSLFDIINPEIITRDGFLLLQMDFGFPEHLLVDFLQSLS
Text: In Vitro Test for the Ability to Inhibit Cholesteryl Ester Transfer
1. Preparation of Cholesteryl Ester Donor
In order to prepare a cholesteryl ester donor to be used in the test, a radiolabeled recombinant HDL containing [^3H]-cholesteryl oleate (GE healthcare, TRK886, 3.5 μCi/mg of apoA-1) and apoA-1 was synthesized. Then, rHDL-agarose obtained by immobilizing the recombinant HDL with CNBr-activated Sepharose 4B resin (Amersham Biosciences, Sweden) was used in the test.
2. Cholesteryl Ester Transfer Test
As a source of cholesteryl ester transfer protein, plasma from healthy humans was used, and as cholesteryl ester receptor, LDL from healthy humans was used. Each of test compounds was added to be final concentrations of 16, 80, 400, 2000 and 10000 nM and tested in duplicate. In order to test cholesteryl ester transfer, 20 μl of plasma, 50 μl of LDL (0.25 mg/ml) and 50 μl of rHDL-agarose (0.25 mg/ml) were mixed with each other, and a solution of each test compound was added thereto and reacted thereto at 37° C. Then, the reaction solution was centrifuged at 4° C. for 3 minutes, thereby the reaction was stopped. 150 μl of the supernatant was transferred into a 96-well plate for radioactivity measurement, and the radioactivity thereof was measured with a beta-ray detector.
3. Statistical Processing
The ratio of [^3H]-cholesteryl oleate transferred from HDL to LDL was determined, and based on the determined ratio, the IC50 value of each compound was determined using GraphPad Prism 5.0.

SMILES	IC50 [nM]
COC(=O)CC(C)(C)c1ccc(OC)c(C2=C(CN3C(=O)O[C@H](c4cc(C(F)(F)F)cc(C(F)(F)F)c4)[C@@H]3C)CC(C)(C)CC2)c1 [Compound 308, methyl 3-(3-(2-(((4S,5R)-5-(3,5-bis(trifluoromethyl)phenyl)-4-methyl-2-oxooxazolidin-3-yl)methyl)-4,4-dimethylcyclohex-1-enyl)-4-methoxyphenyl)-3-methylbutanoate]	7
COc1ccc(NS(=O)(=O)C(F)(F)F)cc1C1=C(CN2C(=O)O[C@H](c3cc(C(F)(F)F)cc(C(F)(F)F)c3)[C@@H]2C)CC(C)(C)CC1 [Compound 137, N-(3-(2-(((4S,5R)-5-(3,5-bis(trifluoromethyl)phenyl)-4-methyl-2-oxooxazolidin-3-yl)methyl)-4,4-dimethylcyclohex-1-enyl)-4-methoxyphenyl)trifluoromethanesulfonamide]	80
COc1ccc(C(C)C)cc1C1=C(CN2C(=S)O[C@H](c3cc(C(F)(F)F)cc(C(F)(F)F)c3)[C@@H]2C)CC(C)(C)CC1 [Compound 15, (4S,5R)-5-(3,5-bis(trifluoromethyl)phenyl)-3-((2-(5-isopropyl-2-methoxyphenyl)-5,5-dimethylcyclohex-1-enyl)methyl)-4-methyloxazolidine-2-thione]	600
COc1ccc(C(OC)(C(F)(F)F)C(F)(F)F)cc1C1=C(CN2C(=O)O[C@H](c3cc(C(F)(F)F)cc(C(F)(F)F)c3)[C@@H]2C)CC(C)(C)CC1 [Compound 182, (4S,5R)-5-(3,5-bis(trifluoromethyl)phenyl)-3-((2-(5-(1,1,1,3,3,3-hexafluoro-2-methoxypropan-2-yl)-2-methoxyphenyl)-5,5-dimethylcyclohex-1-enyl)methyl)-4-methyloxazolidin-2-one]	50
COc1ccc(C(C)C)nc1C1=C(CN2C(=O)O[C@H](c3cc(C(F)(F)F)cc(C(F)(F)F)c3)[C@@H]2C)CC(C)(C)CC1 [Compound 366, (4S,5R)-5-(3,5-bis(trifluoromethyl)phenyl)-3-((2-(6-isopropyl-3-methoxypyridin-2-yl)-5,5-dimethylcyclohex-1-enyl)methyl)-4-methyloxazolidin-2-one]	6
COc1ccccc1C1=C(CN2C(=O)O[C@H](c3cc(C(F)(F)F)cc(C(F)(F)F)c3)[C@@H]2C)CC(C)(C)CC1 [Compound 18, (4S,5R)-5-(3,5-bis(trifluoromethyl)phenyl)-3-((2-(2-methoxyphenyl)-5,5-dimethylcyclohex-1-enyl)methyl)-4-methyloxazolidin-2-one]	1360
COc1ccc(C=O)cc1C1=C(CN2C(=O)O[C@H](c3cc(C(F)(F)F)cc(C(F)(F)F)c3)[C@@H]2C)CCCC1 [Compound 79, 3-(2-(((4S,5R)-5-(3,5-bis(trifluoromethyl)phenyl)-4-methyl-2-oxooxazolidin-3-yl)methyl)cyclohex-1-enyl)-4-methoxybenzaldehyde]	890
COc1ccc(C(C)C)cc1C1=C(CN2C(=O)O[C@H](c3cc(C(F)(F)F)cc(C(F)(F)F)c3)[C@@H]2C)CCC(C)(C)C1 [Compound 44, (4S,5R)-5-(3,5-bis(trifluoromethyl)phenyl)-3-((2-(5-isopropyl-2-methoxyphenyl)-4,4-dimethylcyclohex-1-enyl)methyl)-4-methyloxazolidin-2-one]	430
COc1ccc(C2(C(N)=O)CC2)cc1C1=C(CN2C(=O)O[C@H](c3cc(C(F)(F)F)cc(C(F)(F)F)c3)[C@@H]2C)CC(C)(C)CC1 [Compound 190, 1-(3-(2-(((4S,5R)-5-(3,5-bis(trifluoromethyl)phenyl)-4-methyl-2-oxooxazolidin-3-yl)methyl)-4,4-dimethylcyclohex-1-enyl)-4-methoxyphenyl)cyclopropanecarboxamide]	10
COc1cc(F)c(C2(C)CC2)cc1C1=C(CN2C(=O)O[C@H](c3cc(C(F)(F)F)cc(C(F)(F)F)c3)[C@@H]2C)CC2(CC1)CC2 [Compound 303, (4S,5R)-5-(3,5-bis(trifluoromethyl)phenyl)-3-((6-(4-fluoro-2-methoxy-5-(1-methylcyclopropyl)phenyl)spiro[2.5]oct-5-en-5-yl)methyl)-4-methyloxazolidin-2-one]	5
COc1cc(F)c(C(C)C)cc1C1=C(CN2C(=S)O[C@H](c3cc(C(F)(F)F)cc(C(F)(F)F)c3)[C@@H]2C)CCCC1 [Compound 28, (4S,5R)-5-(3,5-bis(trifluoromethyl)phenyl)-3-((2-(4-fluoro-5-isopropyl-2-methoxyphenyl)cyclohex-1-enyl)methyl)-4-methyloxazolidine-2-thione]	390
COc1ccc(C2=N[C@H](C(C)C)CO2)cc1C1=C(CN2C(=O)O[C@H](c3cc(C(F)(F)F)cc(C(F)(F)F)c3)[C@@H]2C)CC(C)(C)CC1 [Compound 188, (4S,5R)-5-(3,5-bis(trifluoromethyl)phenyl)-3-((2-(5-((R)-4-isopropyl-4,5-dihydrooxazol-2-yl)-2-methoxyphenyl)-5,5-dimethylcyclohex-1-enyl)methyl)-4-methyloxazolidin-2-one]	120
COc1ncc(C(F)(F)F)cc1C1=C(CN2C(=O)O[C@H](c3cc(C(F)(F)F)cc(C(F)(F)F)c3)[C@@H]2C)CC(C)(C)CC1 [Compound 316, (4S,5R)-5-(3,5-bis(trifluoromethyl)phenyl)-3-((2-(2-methoxy-5-(trifluoromethyl)pyridin-3-yl)-5,5-dimethylcyclohex-1-enyl)methyl)-4-methyloxazolidin-2-one]	30
COC(=O)C1(Cc2ccc(OC)c(C3=C(CN4C(=O)O[C@H](c5cc(C(F)(F)F)cc(C(F)(F)F)c5)[C@@H]4C)CC(C)(C)CC3)c2)CCCC1 [Compound 323, methyl 1-(3-(2-(((4S,5R)-5-(3,5-bis(trifluoromethyl)phenyl)-4-methyl-2-oxooxazolidin-3-yl)methyl)-4,4-dimethylcyclohex-1-enyl)-4-methoxybenzyl)cyclopentanecarboxylate]	58
COc1ccc([N+](=O)[O-])cc1C1=C(CN2C(=O)O[C@H](c3cc(C(F)(F)F)cc(C(F)(F)F)c3)[C@@H]2C)CC(C(F)(F)F)CC1 (stereo partly drawn) [Compound 194, (4S,5R)-5-(3,5-bis(trifluoromethyl)phenyl)-3-((2-(2-methoxy-5-nitrophenyl)-5-(trifluoromethyl)cyclohex-1-enyl)methyl)-4-methyloxazolidin-2-one]	100
COc1ncc(CC(C)(C)C(=O)O)cc1C1=C(CN2C(=O)O[C@H](c3cc(C(F)(F)F)cc(C(F)(F)F)c3)[C@@H]2C)CC(C)(C)CC1 [Compound 350, 3-(5-(2-(((4S,5R)-5-(3,5-bis(trifluoromethyl)phenyl)-4-methyl-2-oxooxazolidin-3-yl)methyl)-4,4-dimethylcyclohex-1-enyl)-6-methoxypyridin-3-yl)-2,2-dimethylpropanoic acid]	51
COc1cc(F)c(CC(C)(C)C(N)=O)cc1C1=C(CN2C(=O)O[C@H](c3cc(C(F)(F)F)cc(C(F)(F)F)c3)[C@@H]2C)CC(C)(C)CC1 [Compound 329, 3-(5-(2-(((4S,5R)-5-(3,5-bis(trifluoromethyl)phenyl)-4-methyl-2-oxooxazolidin-3-yl)methyl)-4,4-dimethylcyclohex-1-enyl)-2-fluoro-4-methoxyphenyl)-2,2-dimethylpropanamide]	9
COc1cc(F)c(C(C)C)cc1C1=C(CN2C(=S)O[C@H](c3cc(C(F)(F)F)cc(C(F)(F)F)c3)[C@@H]2C)CC(C)CC1 (stereo partly drawn) [Compound 26, (4S,5R)-5-(3,5-bis(trifluoromethyl)phenyl)-3-((2-(4-fluoro-5-isopropyl-2-methoxyphenyl)-5-methylcyclohex-1-enyl)methyl)-4-methyloxazolidine-2-thione]	920
COc1ccc(N(C)C(=O)C(C)(C)OC(C)=O)cc1C1=C(CN2C(=O)O[C@H](c3cc(C(F)(F)F)cc(C(F)(F)F)c3)[C@@H]2C)CC(C)(C)CC1 [Compound 243, 1-((3-(2-(((4S,5R)-5-(3,5-bis(trifluoromethyl)phenyl)-4-methyl-2-oxooxazolidin-3-yl)methyl)-4,4-dimethylcyclohex-1-enyl)-4-methoxyphenyl)(methyl)amino)-2-methyl-1-oxopropan-2-yl acetate]	9
COC(=O)C(C)(C)Cc1ccc(OC)c(C2=C(CN3C(=O)O[C@H](c4cc(C(F)(F)F)cc(C(F)(F)F)c4)[C@@H]3C)CC(C)(C)CC2)c1 [Compound 285, methyl 3-(3-(2-(((4S,5R)-5-(3,5-bis(trifluoromethyl)phenyl)-4-methyl-2-oxooxazolidin-3-yl)methyl)-4,4-dimethylcyclohex-1-enyl)-4-methoxyphenyl)-2,2-dimethylpropanoate]	33
